The target of one test is T1, CDK9/CycT1 (Homo sapiens, UniProt P50750).
T1 construct: Recombinant full-length His-tagged human CDK9 and CycT1; His; purchased Invitrogen PV4131; host or cells: insect cells
In words: CDK9/CycT1 high ATP kinase assay (Method 1b, TR-FRET, 2 mM ATP). Type of test: biochemical. The conditions noted are these: for IC50: Method 1b, 2 mM ATP; for Selectivity high ATP CDK9/high ATP CDK2: according to Methods 1b and 2b (ratio of high ATP CDK2 IC50 to high ATP CDK9 IC50). How it is done:
1b. CDK9/CycT1 High ATP Kinase Assay
CDK9/CycT1-inhibitory activity of compounds of the present invention at a high ATP concentration after preincubation of enzyme and test compounds was quantified employing the CDK9/CycT1 TR-FRET assay as described in the following paragraphs.
(§1) Recombinant full-length His-tagged human CDK9 and CycT1, expressed in insect cells and purified by Ni-NTA affinity chromatography, were purchase from Invitrogen (Cat. No PV4131). As substrate for the kinase reaction biotinylated peptide biotin-Ttds-YISPLKSPYKISEG (C-terminus in amid form) was used which can be purchased e.g. form the company JERINI peptide technologies (Berlin, Germany). For the assay 50 n1 of a 100 fold concentrated solution of the test compound in DMSO was pipetted into a black low volume 384 well microtiter plate (Greiner Bio-One, Frickenhausen, Germany), 2 μl of a solution of CDK9/CycT1 in aqueous assay buffer [50 mM Tris/HCl pH 8.0, 10 mM MgCl2, 1.0 mM dithiothreitol, 0.1 mM sodium ortho-vanadate, 0.01% (v/v) Nonidet-P40 (Sigma)] were added and the mixture was incubated for 15 min at 22° C. to allow pre-binding of the test compounds to the enzyme before the start of the kinase reaction. Then the kinase reaction was started by the addition of 3 μl of a solution of adenosine-tri-phosphate (ATP, 3.3 mM=>final conc. in the 5 μl assay volume is 2 mM) and substrate (1.67 μM=>final conc. in the 5 μl assay volume is 1 μM) in assay buffer and the resulting mixture was incubated for a reaction time of 25 min at 22° C. The concentration of CDK9/CycT1 was adjusted depending of the activity of the enzyme lot and was chosen appropriate to have the assay in the linear range, typical concentrations were in the range of 0.5 μg/mL. The reaction was stopped by the addition of 5 μl of a solution of TR-FRET detection reagents (0.2 μM streptavidine-XL665 [Cisbio Bioassays, Codolet, France] and 1 nM anti-RB(pSer807/pSer811)-antibody from BD Pharmingen [#558389] and 1.2 nM LANCE EU-W1024 labeled anti-mouse IgG antibody [Perkin-Elmer, product no. AD0077]) in an aqueous EDTA-solution (100 mM EDTA, 0.2% (w/v) bovine serum albumin in 100 mM HEPES/NaOH pH 7.0).
(§2) The resulting mixture was incubated 1 h at 22° C. to allow the formation of complex between the phosphorylated biotinylated peptide and the detection reagents. Subsequently the amount of phosphorylated substrate was evaluated by measurement of the resonance energy transfer from the Eu-chelate to the streptavidine-XL. Therefore, the fluorescence emissions at 620 nm and 665 nm after excitation at 350 nm was measured in a HTRF reader, e.g. a Rubystar (BMG Labtechnologies, Offenburg, Germany) or a Viewlux (Perkin-Elmer). The ratio of the emissions at 665 nm and at […] was taken as the measure for the amount of phosphorylated substrate. The data were normalised (enzyme reaction without inhibitor=0% inhibition, all other assay components but no enzyme=100% inhibition).
Background: TR-FRET usually uses a lanthanide donor and a delayed reading to cut background.

Another test concerns the target T2, CDK2/CycE (Homo sapiens, UniProt P24941).
T2 construct: GST; purchased ProQinase GmbH (Freiburg, Germany); host or cells: insect cells (Sf9)
Nature of the test: CDK2/CycE kinase assay (Method 2a, TR-FRET, 10 μM ATP). Format: biochemical.
Text: 2a. CDK2/CycE Kinase Assay:
CDK2/CycE-inhibitory activity of compounds of the present invention was quantified employing the CDK2/CycE TR-FRET assay as described in the following paragraphs:
Recombinant fusion proteins of GST and human CDK2 and of GST and human CycE, expressed in insect cells (Sf9) and purified by Glutathion-Sepharose affinity chromatography, were purchased from ProQinase GmbH (Freiburg, Germany). As substrate for the kinase reaction biotinylated peptide biotin-Ttds-YISPLKSPYKISEG (C-terminus in amid form) was used which can be purchased e.g. form the company JERINI Peptide Technologies (Berlin, Germany).
as §1, with “For” for “Recombinant full-length His-tagged human CDK9 and CycT1, expressed in insect cells and purified by Ni-NTA affinity chromatography, were purchase from Invitrogen (Cat. No PV4131). As substrate for the kinase reaction biotinylated peptide biotin-Ttds-YISPLKSPYKISEG (C-terminus in amid form) was used which can be purchased e.g. form the company JERINI peptide technologies (Berlin, Germany). For”, “of CDK2/CycE” for “of CDK9/CycT1”, “(ATP, 16.7” for “(ATP, 3.3 mM=>final conc. in the 5 μl assay volume is 2 mM) and substrate (1.67”, “is 10 μM) and substrate (1.25 μM=>final conc. in the 5 μl assay volume is 0.75” for “is 1”, “of 130 ng/mL.” for “of 0.5 μg/mL.”
as §2, with “TR-FRET” for “HTRF”

T1 sequence (P50750 whole entry): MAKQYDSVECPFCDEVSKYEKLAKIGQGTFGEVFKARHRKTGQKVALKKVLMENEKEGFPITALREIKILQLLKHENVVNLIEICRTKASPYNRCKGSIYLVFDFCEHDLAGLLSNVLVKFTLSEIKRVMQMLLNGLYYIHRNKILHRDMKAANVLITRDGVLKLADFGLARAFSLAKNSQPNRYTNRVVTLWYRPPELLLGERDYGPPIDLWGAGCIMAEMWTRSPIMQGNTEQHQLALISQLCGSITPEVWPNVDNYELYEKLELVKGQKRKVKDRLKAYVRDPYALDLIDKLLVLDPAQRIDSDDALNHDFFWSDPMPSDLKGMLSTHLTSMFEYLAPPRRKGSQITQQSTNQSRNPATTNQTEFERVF
T1 sequence (O60563 whole entry partner): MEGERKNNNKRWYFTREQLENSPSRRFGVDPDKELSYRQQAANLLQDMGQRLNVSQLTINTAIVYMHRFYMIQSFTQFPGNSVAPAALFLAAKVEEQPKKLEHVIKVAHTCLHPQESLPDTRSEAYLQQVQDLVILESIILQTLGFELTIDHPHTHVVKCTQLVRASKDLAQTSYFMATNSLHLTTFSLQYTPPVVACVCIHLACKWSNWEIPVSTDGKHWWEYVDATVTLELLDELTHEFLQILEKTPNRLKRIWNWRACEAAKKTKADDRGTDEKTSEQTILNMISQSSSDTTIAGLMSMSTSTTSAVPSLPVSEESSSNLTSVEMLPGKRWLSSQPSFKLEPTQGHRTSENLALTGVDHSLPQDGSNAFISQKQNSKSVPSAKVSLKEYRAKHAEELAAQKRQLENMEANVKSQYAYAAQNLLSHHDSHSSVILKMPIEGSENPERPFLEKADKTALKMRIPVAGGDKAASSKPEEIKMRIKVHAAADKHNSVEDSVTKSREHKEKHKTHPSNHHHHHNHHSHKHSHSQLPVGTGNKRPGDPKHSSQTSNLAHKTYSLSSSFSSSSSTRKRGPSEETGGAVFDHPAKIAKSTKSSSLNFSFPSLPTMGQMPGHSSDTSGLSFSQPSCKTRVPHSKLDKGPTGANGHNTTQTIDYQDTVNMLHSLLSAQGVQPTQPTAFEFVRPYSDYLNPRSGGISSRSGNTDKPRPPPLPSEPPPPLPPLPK

Broadly, the IC50 is the concentration that inhibits the measured activity by half. Low values mean greater potency in that assay, high ones weaker potency in that assay. As for `CS(=O)(=O)Cc1ccnc(Nc2cc(-c3ccc(F)c4ccoc34)c(F)cn2)c1` [Example 1, 5-Fluoro-4-(4-fluoro-1-benzofuran-7-yl)-N-{4-[(methylsulfonyl)methyl]pyridin-2-yl}pyridin-2-amine], on CDK9/CycT1, the IC50 was found to be 2 nM and the “Selectivity high ATP CDK9/high ATP CDK2” value turned out to be 268. Further, the concentration for half-maximal inhibition (IC50) at CDK2/CycE amounted to 87 nM.

Turning to `CS(=O)(=O)Cc1cc(F)nc(Nc2cc(-c3ccc(F)c4ccoc34)c(F)cn2)c1` [Example 2, 5-Fluoro-4-(4-fluoro-1-benzofuran-7-yl)-N-{6-fluoro-4-[(methylsulfonyl)methyl]pyridin-2-yl}pyridin-2-amine], on CDK9/CycT1, the IC50 worked out at 1 nM and the “Selectivity high ATP CDK9/high ATP CDK2” value was determined as 517. For the same compound, at CDK2/CycE, half-maximal inhibition (IC50) was put at 71 nM.

As to `Cc1cc(CS(C)(=O)=O)cc(Nc2cc(-c3ccc(F)c4ccoc34)c(F)cn2)n1` [Example 3, 5-Fluoro-4-(4-fluoro-1-benzofuran-7-yl)-N-{6-methyl-4-[(methylsulfonyl)methyl]pyridin-2-yl}pyridin-2-amine], the IC50 at CDK9/CycT1 came to 0.9 nM; against CDK2/CycE it was 46 nM.

On to `CS(=O)(=O)Cc1cc(Nc2cc(-c3ccc(F)c4ccoc34)c(F)cn2)nc(C(F)(F)F)c1` [Example 4, 5-Fluoro-4-(4-fluoro-1-benzofuran-7-yl)-N-{4-[(methylsulfonyl)methyl]-6-(trifluoromethyl)pyridin-2-yl}pyridin-2-amine], for which the 50% inhibitory concentration (IC50) on CDK9/CycT1 came out at 4 nM; on CDK2/CycE it was 33 nM.

For the compound `CS(=O)(=O)Cc1ccnc(Nc2cc(-c3cccc4ccoc34)c(F)cn2)c1` [Example 5, 4-(1-Benzofuran-7-yl)-5-fluoro-N-{4-[(methylsulfonyl)methyl]pyridin-2-yl}pyridin-2-amine], the half-maximal inhibitory concentration (IC50) came to 2 nM on CDK9/CycT1 and 69 nM against CDK2/CycE.

These data come from patent publication US9856242B2, “5-fluoro-N-(pyridin-2-yl)pyridin-2-amine derivatives containing a sulfone group” (Bayer Pharma Aktiengesellschaft, priority 2014, dated 2018).
